This is an account of results in patent US20200061047A1, “NEW USE OF RIFAMYCIN-QUINOLIZIDONE DUAL-ACTION MOLECULE” (TenNor Therapeutics Limited, priority 2017, published 2020).

In brackets after ≈: the same amount, converted by molar mass. Read-outs that look alike come from different tables or passages of the source.

A word on the MIC: it is the lowest concentration that inhibits growth of the organism.

Assay in all cases: MIC, agar dilution drug sensitivity test
Common to all, as to type: cell-based
For orientation: In agar dilution the substance is mixed into plates at graded concentrations.

The subject of assay [1] is Alcaligenes faecalis JMI 940880. The settings on record: JMI940880, Aerobic.
For assay [2], the system named is Proteus vulgaris MMX 6454. The settings on record: MMX6454, Table 1.
Assay [3] has as its system Bacteroides vulgatus JMI 927011. The following applies: Phocaeicola vulgatus, JMI927011.
Assay [4] has as its system Klebsiella oxytoca JMI 933995. The settings on record: JMI933995, Table 1.
The test system of assay [5] is Salmonella spp ATCC 35987. The following applies: ATCC35987, Table 1. How it is done:
In this embodiment, compound I-rifamycin-quinolizidone dual-action molecule is used in a drug sensitivity test on pathogenic bacteria associated with hepatic encephalopathy, the pathogenic bacteria including the above ammonia-producing bacteria. Except that Haemophilus is tested using the microscale broth dilution method, all the other bacteria are tested using the agar dilution method consistent with that in the Guideline of the Clinical and Laboratory Standards Institute (CLSI; 1-3). All the other drug susceptibility tests are performed under anaerobic conditions except that some selective isolates are tested under both aerobic and anaerobic conditions. Control compounds include metronidazole, rifampicin, clindamycin (under anaerobic conditions) and ciprofloxacin (under aerobic and anaerobic conditions).
The tested clinical isolates may be reference strains obtained from American Type Culture Collection, ATCC, Manassas, Va. After being received, the strains are respectively inoculated on appropriate agar plates and placed under optimized conditions for growth. The growing strains are cloned in the broth containing cryoprotectant to prepare bacterial suspensions, and the bacterial suspensions are subpackaged and then stored in freezing at −80° C. Before test, the frozen bacteria are inoculated into appropriate agar dishes and cultured for growth. Anaerobic bacteria grow for 48 hours at 35° C. in a Bactron II oxygen-free cabinet (Shel Lab, Cornelius, Oreg.) before test. […]
The Minimum Inhibitory Concentration (MIC) is determined using the agar dilution method.
The MIC values of all microorganisms except Haemophilus are determined using the agar dilution method in the CLSI (1-2). […] After culturing, the MIC is determined in accordance with the CLSI guideline (1-2).

Assay [6] deals with Lactobacillus salivarius JMI 941623. The settings on record: Ligilactobacillus salivarius, JMI941623, Table 1.
In assay [7] the test system is Fusobacterium necrophorum ATCC 25286. The following applies: ATCC25286, Table 1.
Assay [8] deals with Morganella morganii MMX 6123. The following applies: MMX6123, Table 1.
Assay [9] concerns Bifidobacterium infantis subsp. Infantis ATCC 15702. The settings on record: ATCC15702, Table 1.
In assay [10] the test system is Peptostreptococcus prevotii ATCC 9321. The following applies: Anaerococcus prevotii, ATCC9321, Table 1.
The test system of assay [11] is Proteus mirabilis JMI 933599. The settings on record: JMI933599, Table 1.
Assay [12] concerns Yersinia enterocolitica ATCC 23715. The settings on record: ATCC23715, Table 1.
Assay [13] deals with Escherichia coli ATCC 25922. The settings on record: ATCC25922, Table 1.
Assay [14] has as its system Helicobacter pylori ATCC 700824. The following applies: ATCC700824, Table 1.
In assay [15] the test system is Streptococcus parasanguinis MMX 5671. The following applies: Streptococcus parasanguinis, MMX5671, Streptococcus parasanguinis MMX 5671, read-out: MIC.
The test system of assay [16] is Bordetella avium ATCC 6945. The settings on record: Bordetella avium, ATCC6945, Bordetella avium ATCC 6945, read-out: MIC.

As to `O=C(O)c1cn(C2CC2)c2cc(N3CCNCC3)c(F)cc2c1=O` [Ciprofloxacin, ciprofloxacin], the MIC in assay [1] was 1 µg/mL (≈ 3.02 µM); in assay [2], 0.12 µg/mL (≈ 0.362 µM); in assay [3] it was greater than 16 µg/mL; in assay [4], 0.015 µg/mL (≈ 0.0453 µM); in assay [5], 0.015 µg/mL (≈ 0.0453 µM); in assay [6] it was 1 µg/mL (≈ 3.02 µM). The MIC is 1 µg/mL (≈ 3.02 µM) in assay [7]; 1 µg/mL (≈ 3.02 µM) in [8]; 2 µg/mL (≈ 6.04 µM) in assay [9]; 1 µg/mL (≈ 3.02 µM) in assay [10]; 0.0015 µg/mL (≈ 0.00453 µM) in assay [11]; 0.015 µg/mL (≈ 0.0453 µM) in [12]. For the same molecule, the minimal inhibitory concentration (MIC) in assay [13] stood at 0.008 µg/mL (≈ 0.0241 µM); in [14], 0.12 µg/mL (≈ 0.362 µM); in [15] (Aerobic) it was 1 µg/mL (≈ 3.02 µM); in assay [15] (Anaerobic) it was 1 µg/mL (≈ 3.02 µM); in assay [16] (Aerobic), 1 µg/mL (≈ 3.02 µM); in assay [16] (Anaerobic), 2 µg/mL (≈ 6.04 µM).

Turning to `CO[C@H]1/C=C/O[C@@]2(C)Oc3c(C)c(O)c4c(O)c(c(/C=N/N5CCC(N(C)C6([C@@H]7CCN(c8c(F)cn9c(=O)c(C(=O)O)cc(C%10CC%10)c9c8C)C7)CC6)CC5)c(O)c4c3C2=O)NC(=O)/C(C)=C\C=C\[C@H](C)[C@H](O)[C@@H](C)[C@@H](O)[C@@H](C)[C@H](OC(C)=O)[C@@H]1C` [Compound I, (R)-3-[(4-{1-[1-(3-carboxy-1-cyclopropyl-7-fluoro-9-methyl-4-oxo-4H-quinolizine-8-yl)-pyrrolidin-3-yl-cyclopropyl]-methylamino}-piperidin-1-ylimino)-methylene]-rifamycin SV], the MIC amounted to 32 µg/mL (≈ 26.5 µM) in assay [1]; 2 µg/mL (≈ 1.66 µM) in assay [2]; 16 µg/mL (≈ 13.3 µM) in assay [3]; 4 µg/mL (≈ 3.32 µM) in [4]; 0.06 µg/mL (≈ 0.0498 µM) in [5]; 0.5 µg/mL (≈ 0.415 µM) in assay [6]. Also, the MIC came out at 0.12 µg/mL (≈ 0.0996 µM) in assay [7]; 16 µg/mL (≈ 13.3 µM) in assay [8]; 2 µg/mL (≈ 1.66 µM) in assay [9]; 0.03 µg/mL (≈ 0.0249 µM) in assay [10]; 8 µg/mL (≈ 6.64 µM) in assay [11]; 0.12 µg/mL (≈ 0.0996 µM) in assay [12]. The MIC in [13] was 0.12 µg/mL (≈ 0.0996 µM); in [14], 0.12 µg/mL (≈ 0.0996 µM); in assay [15] (Aerobic), 0.25 µg/mL (≈ 0.207 µM); in assay [15] (Anaerobic), 8 µg/mL (≈ 6.64 µM); in [16] (Aerobic), 4 µg/mL (≈ 3.32 µM); in [16] (Anaerobic), greater than 64 µg/mL.
